Assays:
[1] = molecular target: T1, human pregnane X receptor (hPXR) (Homo sapiens, UniProt O75469); assay: biochemical; design: gene NR1I2
T1 sequence (O75469 130-434 limits assumed): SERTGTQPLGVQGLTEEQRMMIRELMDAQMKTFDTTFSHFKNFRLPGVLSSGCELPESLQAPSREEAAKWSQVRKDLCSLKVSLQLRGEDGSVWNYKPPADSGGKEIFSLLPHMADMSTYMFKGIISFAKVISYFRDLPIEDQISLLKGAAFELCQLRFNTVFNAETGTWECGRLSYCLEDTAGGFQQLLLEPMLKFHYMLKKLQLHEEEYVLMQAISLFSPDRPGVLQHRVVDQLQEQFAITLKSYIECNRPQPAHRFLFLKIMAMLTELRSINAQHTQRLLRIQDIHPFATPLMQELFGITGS

[2] = molecular target: T1, human pregnane X receptor (hPXR); assay: TR-FRET competitive binding assay (LanthaScreen PXR); also activates hPXR in reporter assay; design: gene NR1I2; hPXR-LBD-GST
[3] = molecular target: T2, ligand-binding domain (LBD) of human pregnane X receptor (hPXR), residues 130–432 (human, UniProt O75469-1 130-432); assay: crystal structure; hPXR^LBD-NCOA1^676–700 co-crystallised with nomilin (1 mM), sitting drop vapour diffusion at 4 °C, 10% (v/v) 2-propanol, 100 mM imidazole/HCl pH 8.0; 2.1 Å; the homodimer is also said to form in the purification (SEC in 150 mM NaCl, 20 mM HEPES, 1 mM TCEP); conditions: both partners purified
T2 construct: In the crystal it stood on one chain with the NCOA1 peptide, joined by the spacer SSSGGT: see m1; also called hPXR LBD; hPXR^LBD; source: Sf9 (recombinant baculovirus), purified, as part of the fusion protein m1
T2 sequence (looked up): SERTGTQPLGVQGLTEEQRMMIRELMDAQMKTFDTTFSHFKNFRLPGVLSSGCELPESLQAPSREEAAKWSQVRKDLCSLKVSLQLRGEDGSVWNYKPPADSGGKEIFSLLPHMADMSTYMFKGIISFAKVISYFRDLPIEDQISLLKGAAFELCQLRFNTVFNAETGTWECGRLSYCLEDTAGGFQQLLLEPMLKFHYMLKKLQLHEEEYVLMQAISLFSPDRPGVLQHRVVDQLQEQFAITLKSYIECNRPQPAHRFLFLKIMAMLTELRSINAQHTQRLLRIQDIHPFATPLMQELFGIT

[4] = molecular target: the molecule itself; assay: as above

`CC(=O)O[C@H]1CC(=O)OC(C)(C)[C@@H]2CC(=O)[C@]3(C)[C@H](CC[C@@]4(C)[C@H](c5ccoc5)OC(=O)[C@H]5O[C@]543)[C@@]12C` [nomilin] gave an IC50 [1] of 5.8 µM.

For `CC1(C)OC(=O)C[C@H](O)[C@]2(C)[C@H]3CC[C@@]4(C)[C@H](c5ccoc5)OC(=O)[C@H]5O[C@]54[C@]3(C)C(=O)C[C@@H]12` [deacetylnomilin], the IC50 [2] was 22.7 µM.

B1: nuclear receptor coactivator 1 residues 676–700 (NCOA1^676–700) (peptide, UniProt Q15788-1 676-700, looked up)
peptide: CPSSHSSLTERHKILHRLLQEGSPS
notes: In the crystal it stood on one chain with the hPXR LBD, joined to its C-terminus by the spacer SSSGGT: see m1; source: Sf9 (recombinant baculovirus), purified, as part of the fusion protein m1; not shown: His6, C-terminal, cleaved
B1: binds [3].

B2: hPXR^LBD-NCOA1^676–700 fusion protein (other)
chain: SERTGTQPLGVQGLTEEQRMMIRELMDAQMKTFDTTFSHFKNFRLPGVLSSGCELPESLQAPSREEAAKWSQVRKDLCSLKVSLQLRGEDGSVWNYKPPADSGGKEIFSLLPHMADMSTYMFKGIISFAKVISYFRDLPIEDQISLLKGAAFELCQLRFNTVFNAETGTWECGRLSYCLEDTAGGFQQLLLEPMLKFHYMLKKLQLHEEEYVLMQAISLFSPDRPGVLQHRVVDQLQEQFAITLKSYIECNRPQPAHRFLFLKIMAMLTELRSINAQHTQRLLRIQDIHPFATPLMQELFGITSSSGGTCPSSHSSLTERHKILHRLLQEGSPS
notes: spacer -Ser-Ser-Ser-Gly-Gly-Thr- between the hPXR LBD and the NCOA1 peptide; A TEV protease recognition site stood between the NCOA1 peptide and the His6 tag; Crystallised with nomilin in the ligand pocket; also called hPXR chimera; source: Sf9 (recombinant baculovirus), purified (Talon IMAC, TEV cleavage, second IMAC, SEC on Superdex 200 Increase); not shown: His6, C-terminal, cleaved
B2 was tested, and the “stoichiometry N” value [4] was 2.
